Key:
HL-60 = assay: Compound was evaluated for its relative cell differentiation of human promyelocytic leukemia cells (HL-60); assay type: functional
[1] = target: T1, Vitamin D3 receptor (Bos taurus) (UniProt Q28037); assay: Affinity for bovine thymus vitamin D receptor
T1 sequence (whole entry): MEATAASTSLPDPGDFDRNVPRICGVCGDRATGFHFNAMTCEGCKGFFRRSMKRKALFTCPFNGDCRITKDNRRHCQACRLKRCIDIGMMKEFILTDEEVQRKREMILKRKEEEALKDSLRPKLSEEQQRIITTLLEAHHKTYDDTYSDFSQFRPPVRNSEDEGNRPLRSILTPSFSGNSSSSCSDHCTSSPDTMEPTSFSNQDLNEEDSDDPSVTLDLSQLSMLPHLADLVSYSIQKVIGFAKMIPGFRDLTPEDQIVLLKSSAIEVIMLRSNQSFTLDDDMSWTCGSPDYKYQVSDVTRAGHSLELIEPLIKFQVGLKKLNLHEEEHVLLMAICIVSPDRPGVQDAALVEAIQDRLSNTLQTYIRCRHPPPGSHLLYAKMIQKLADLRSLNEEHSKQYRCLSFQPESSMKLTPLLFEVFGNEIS

Row | Compound | Activity (HL-60) | Activity [1]
1 | C=C1/C(=C\C=C2/CCC[C@@]3(C)C2CC[C@@H]3C(CCCC(C)(C)O)CCCC(C)(C)O)C[C@@H](O)[C@H](CCCO)[C@@H]1O (stereo not given in full) | 1280 | 57
2 | C=C1/C(=C\C=C2/CCC[C@@]3(C)C2CC[C@@H]3C(CCCC(C)(C)O)CCCC(C)(C)O)C[C@@H](O)[C@H](OCCCO)[C@@H]1O (stereo not given in full) | 1920 | 36
3 | C=C1/C(=C\C=C2/CCC[C@]3(C)[C@@H]([C@H](C)CCCC(C)(C)O)CC[C@@H]23)C[C@@H](O)C[C@@H]1O [CALCITRIOL] | 100 | 100
4 | C=C1/C(=C\C=C2/CCC[C@@]3(C)C2CC[C@@H]3C(CCCC(C)(C)O)CCCC(C)(C)O)C[C@@H](O)[C@H](C)[C@@H]1O (stereo not given in full) | 3840 | 53
5 | C=C1/C(=C\C=C2/CCC[C@@]3(C)C2CC[C@@H]3C(CCCC(C)(C)O)CCCC(C)(C)O)C[C@@H](O)C[C@@H]1O (stereo not given in full) | 1060 | 24
